In brackets after ≈: the same amount, converted by molar mass.
Columns and labels:
[1] = molecular target: Staphylococcus aureus DNA gyrase (Staphylococcus aureus, UniProt P0A0K8+P20831); assay: biochemical
[2] = tested on: HepG2 (ATCC) cell line; assay: Cytotoxicity, metabolic cell activity (CellTiter 96 AQueous One), HepG2; type: cell-based; details: two independent experiments; for mean percentage of metabolic activity of treated cells, HepG2 1 μM: HepG2, compound 1 μM; for mean percentage of metabolic activity of treated cells, HepG2 50 μM: HepG2, compound 50 μM
Procedure: (§1) Cytotoxicity was assessed in assay measuring metabolic cell activity performed on HepG2 (ATCC) and HUVEC (ATCC) cell lines according to the protocol of CellTiter 96® AQueous One Solution Cell Proliferation Assay 2018, Promega, USA, 2001. The method involved absorbance measurements after the treatment of cells with compounds at concentrations 1 μM and 50 μM.
(§2) The results are given as the mean percentage of metabolic activity of treated cells from two independent experiments and are represented in Table 3.

[3] = tested on: E. faecalis DRK 057; assay: MIC broth microdilution, E. faecalis; type: cell-based; details: Enterococcus faecalis, DRK057, 20 hours of incubation
Procedure: (§3) Minimal inhibitory concentrations were determined by the broth microdilution method in 96-wells plate format following the Clinical and Laboratory Standards Institute (CLSI) guidelines given in “Methods for Dilution Antimicrobial Susceptibility Tests for Bacteria That Grow Aerobically, Approved Standard, 10th Edition, CLSI document M07-A10, Wayne, PA: Clinical and Laboratory Standards Institute, USA, 2015” and European Committee on Antimicrobial Susceptibility Testing (EUCAST) recommendations given in “The European Committee on Antimicrobial Susceptibility Testing, Breakpoint tables for interpretation of MICs and zone diameters, Version 5.0, 2015”. All exemplified compounds were tested on several Gram-positive (S. aureus, methicillin-resistant Staphylococcus aureus (MRSA), methicillin-resistant
(§4) Staphylococcus schleiferi subspecies coagulans, methicillin-resistant Staphylococcus pseudintermedius
(§5) (S-48, S-84, S-35, S-52, S-40 and S-51), Streptococcus agalactiae and Enterococcus faecalis) and Gram-negative bacteria (E. coli, Salmonella Alachua and Pseudomonas aeruginosa).
(§6) The MICs were visually determined as the lowest compound concentration inhibiting bacterial growth after 20 hours of incubation time. […] MIC values are represented in Table 2.

[4] = tested on: HUVEC (ATCC) cell line; assay: Cytotoxicity, metabolic cell activity (CellTiter 96 AQueous One), HUVEC; type: cell-based; details: two independent experiments; for mean percentage of metabolic activity of treated cells, HUVEC 1 μM: compound 1 μM; for mean percentage of metabolic activity of treated cells, HUVEC 50 μM: compound 50 μM
Procedure: as §1, §2

[5] = tested on: methicillin-resistant Staphylococcus pseudintermedius S-51; assay: MIC broth microdilution, MRSP S-51; type: cell-based; details: 20 hours of incubation
Procedure: as §3, §4, §5, §6

[6] = tested on: methicillin-resistant Staphylococcus pseudintermedius S-52; assay: MIC broth microdilution, MRSP S-52; type: cell-based; details: 20 hours of incubation
Procedure: as §3, §4, §5, §6

[7] = tested on: methicillin-resistant Staphylococcus schleiferi subspecies coagulans; assay: MIC broth microdilution, MRSS; type: cell-based; details: 20 hours of incubation
Procedure: as §3, §4, §5, §6

[8] = tested on: C. jejuni RDK-135; assay: MIC broth microdilution, C. jejuni; type: cell-based; details: Campylobacter jejuni, RDK135, 20 hours of incubation
Procedure: as §3, §6

[9] = tested on: methicillin-resistant Staphylococcus pseudintermedius S-40; assay: MIC broth microdilution, MRSP S-40; type: cell-based; details: 20 hours of incubation
Procedure: as §3, §4, §5, §6

[10] = tested on: P. aeruginosa RDK 184; assay: MIC broth microdilution, P. aeruginosa; type: cell-based; details: Pseudomonas aeruginosa, RDK184, 20 hours of incubation
Procedure: as §3, §4, §5, §6

[11] = tested on: methicillin-resistant Staphylococcus pseudintermedius S-35; assay: MIC broth microdilution, MRSP S-35; type: cell-based; details: 20 hours of incubation
Procedure: as §3, §4, §5, §6

[12] = tested on: methicillin-resistant Staphylococcus pseudintermedius S-84; assay: MIC broth microdilution, MRSP S-84; type: cell-based; details: 20 hours of incubation
Procedure: as §3, §4, §5, §6

[13] = tested on: methicillin-resistant Staphylococcus pseudintermedius S-48; assay: MIC broth microdilution, MRSP S-48; type: cell-based; details: 20 hours of incubation
Procedure: as §3, §4, §5, §6

[14] = tested on: methicillin-resistant Staphylococcus aureus (MRSA); assay: MIC broth microdilution, MRSA; type: cell-based; details: 20 hours of incubation
Procedure: as §3, §4, §5, §6

[15] = molecular target: T1, Escherichia coli DNA gyrase (Escherichia coli, UniProt P0AES4+P0AES6); assay: Gyrase Supercoiling High Throughput Plate assay (E. coli); type: biochemical; details: mean of two to four independent measurements
T1 construct: purchased Inspiralis (Norwich, UK)
T1 sequence (P0AES4 whole entry, one chain of several): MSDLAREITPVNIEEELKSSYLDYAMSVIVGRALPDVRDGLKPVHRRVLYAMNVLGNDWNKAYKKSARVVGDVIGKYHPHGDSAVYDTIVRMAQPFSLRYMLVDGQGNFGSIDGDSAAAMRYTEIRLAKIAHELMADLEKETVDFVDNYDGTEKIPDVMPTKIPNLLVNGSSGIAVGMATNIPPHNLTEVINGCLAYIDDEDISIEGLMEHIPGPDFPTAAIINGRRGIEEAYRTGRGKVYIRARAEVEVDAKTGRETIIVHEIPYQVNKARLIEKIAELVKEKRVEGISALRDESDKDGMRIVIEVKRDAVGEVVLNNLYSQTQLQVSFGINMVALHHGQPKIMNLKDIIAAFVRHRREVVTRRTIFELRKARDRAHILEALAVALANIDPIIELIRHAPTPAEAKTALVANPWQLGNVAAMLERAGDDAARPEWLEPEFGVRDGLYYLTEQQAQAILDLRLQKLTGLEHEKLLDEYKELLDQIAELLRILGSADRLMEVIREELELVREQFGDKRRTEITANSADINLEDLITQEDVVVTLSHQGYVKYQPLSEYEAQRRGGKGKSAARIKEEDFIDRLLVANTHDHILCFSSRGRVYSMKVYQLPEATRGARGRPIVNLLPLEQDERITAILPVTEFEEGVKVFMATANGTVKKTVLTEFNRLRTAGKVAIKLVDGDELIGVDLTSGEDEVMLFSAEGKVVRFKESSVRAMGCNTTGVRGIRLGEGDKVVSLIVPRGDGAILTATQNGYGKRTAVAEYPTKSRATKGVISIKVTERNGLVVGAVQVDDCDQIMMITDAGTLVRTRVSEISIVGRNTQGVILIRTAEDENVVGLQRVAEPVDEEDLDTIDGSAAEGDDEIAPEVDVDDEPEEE

Sequence of Staphylococcus aureus DNA gyrase (P20831 whole entry): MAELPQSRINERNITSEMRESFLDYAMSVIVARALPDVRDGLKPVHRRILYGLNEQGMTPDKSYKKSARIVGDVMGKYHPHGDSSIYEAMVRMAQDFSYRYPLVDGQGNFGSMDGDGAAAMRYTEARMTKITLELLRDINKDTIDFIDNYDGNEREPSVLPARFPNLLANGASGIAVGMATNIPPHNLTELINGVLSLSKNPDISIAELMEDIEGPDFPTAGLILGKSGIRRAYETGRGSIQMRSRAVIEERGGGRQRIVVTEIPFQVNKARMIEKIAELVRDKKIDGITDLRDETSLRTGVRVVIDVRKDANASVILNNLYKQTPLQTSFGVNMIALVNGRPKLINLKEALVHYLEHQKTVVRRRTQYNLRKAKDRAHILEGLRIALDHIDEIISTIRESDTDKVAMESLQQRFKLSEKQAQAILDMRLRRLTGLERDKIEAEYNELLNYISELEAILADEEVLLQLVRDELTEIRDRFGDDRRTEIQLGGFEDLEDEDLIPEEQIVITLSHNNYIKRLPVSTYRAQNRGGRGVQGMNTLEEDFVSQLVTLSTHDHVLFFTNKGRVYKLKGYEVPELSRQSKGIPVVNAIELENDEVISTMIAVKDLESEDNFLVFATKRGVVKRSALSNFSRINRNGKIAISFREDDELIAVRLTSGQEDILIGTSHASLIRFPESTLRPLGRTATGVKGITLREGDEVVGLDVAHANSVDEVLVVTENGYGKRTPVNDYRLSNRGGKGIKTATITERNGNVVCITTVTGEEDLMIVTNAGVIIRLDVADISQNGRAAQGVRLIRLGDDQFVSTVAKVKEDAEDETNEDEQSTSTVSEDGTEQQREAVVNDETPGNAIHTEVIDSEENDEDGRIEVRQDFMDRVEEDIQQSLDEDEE
Sequence of Staphylococcus aureus DNA gyrase (P0A0K8 whole entry): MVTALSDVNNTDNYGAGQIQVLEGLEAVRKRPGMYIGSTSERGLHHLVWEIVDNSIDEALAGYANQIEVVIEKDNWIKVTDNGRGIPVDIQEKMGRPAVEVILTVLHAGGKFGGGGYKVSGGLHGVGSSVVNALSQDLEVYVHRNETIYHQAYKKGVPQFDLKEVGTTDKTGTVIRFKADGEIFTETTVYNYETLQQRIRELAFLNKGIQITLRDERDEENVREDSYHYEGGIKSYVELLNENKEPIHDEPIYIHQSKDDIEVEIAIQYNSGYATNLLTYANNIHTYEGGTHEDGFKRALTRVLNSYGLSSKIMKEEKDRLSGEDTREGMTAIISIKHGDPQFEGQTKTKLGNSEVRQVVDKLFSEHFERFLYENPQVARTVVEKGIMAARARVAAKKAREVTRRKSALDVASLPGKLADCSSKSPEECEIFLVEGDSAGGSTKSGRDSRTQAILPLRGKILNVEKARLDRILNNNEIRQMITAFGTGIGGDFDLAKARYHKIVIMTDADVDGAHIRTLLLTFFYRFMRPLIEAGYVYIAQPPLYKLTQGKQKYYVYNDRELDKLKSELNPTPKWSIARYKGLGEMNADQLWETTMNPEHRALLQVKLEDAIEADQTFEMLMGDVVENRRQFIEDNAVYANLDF

Structure (SMILES) | IC50 [1] | mean percentage of metabolic activity of treated cells, HepG2 1 μM [2] | mean percentage of metabolic activity of treated cells, HepG2 50 μM [2] | MIC [3] | mean percentage of metabolic activity of treated cells, HUVEC 1 μM [4] | mean percentage of metabolic activity of treated cells, HUVEC 50 μM [4] | MIC [5] | MIC [6] | MIC [7] | MIC [8] | MIC [9] | MIC [10] | MIC [11] | MIC [12] | MIC [13] | MIC [14] | IC50 [15]
COc1ccc2nccc(CCN3CCC(NCc4ccc(I)cc4)CC3)c2n1 [Compound C8, N-(4-iodobenzyl)-1-(2-(6-methoxy-1,5-naphthyridin-4-yl)ethyl)piperidin-4-amine] | 0.011 µM | 102.6 ± 2.3% | 0.5 ± 0.3% | 1 mg/L (≈ 1.99 µM) | 108.0 ± 6.6% | −0.3 ± 0.5% | 0.0078 mg/L (≈ 0.0155 µM) | 0.062 mg/L (≈ 0.123 µM) | 0.002 mg/L (≈ 0.00398 µM) | 0.015 mg/L (≈ 0.0299 µM) | ≤ 0.0078 mg/L | 32 mg/L (≈ 63.7 µM) | 0.15 mg/L (≈ 0.299 µM) | 0.015 mg/L (≈ 0.0299 µM) | 0.015 mg/L (≈ 0.0299 µM) | 0.015 mg/L (≈ 0.0299 µM) | 
COc1ccc2nccc(CCN3CCC(NCc4ccc(CO)cc4)CC3)c2n1 [Compound C2, (4-((1-(2-(6-methoxy-1,5-naphthyridin-4-yl)ethyl)piperidin-4-ylamino)methyl)phenyl)methanol] | 4.39 µM | 100.2 ± 1.5% | 24.1 ± 0.9% | 8 mg/L (≈ 19.7 µM) | 97.7 ± 9.4% | 63.1 ± 2.1% | 4 mg/L (≈ 9.84 µM) | 8 mg/L (≈ 19.7 µM) | 0.25 mg/L (≈ 0.615 µM) | 32 mg/L (≈ 78.7 µM) | 4 mg/L (≈ 9.84 µM) | > 128 mg/L | 4 mg/L (≈ 9.84 µM) | 4 mg/L (≈ 9.84 µM) | 4 mg/L (≈ 9.84 µM) |  | 56.6 µM
COc1ccc2nccc(CCN3CCC(NCc4ccc(OC(F)F)c(OC)c4)CC3)c2n1 [Compound C9, N-(4-(difluoromethoxy)-3-methoxybenzyl)-1-(2-(6-methoxy-1,5-naphthyridin-4-yl)ethyl)piperidin-4-amine] | 0.35 µM | 89.7 ± 3.8% | −0.3 ± 2.1% | 16 mg/L (≈ 33.9 µM) | 89.6 ± 3.8% | 0.2 ± 1.0% | 2 mg/L (≈ 4.23 µM) | 4 mg/L (≈ 8.46 µM) | 0.125 mg/L (≈ 0.265 µM) | 2 mg/L (≈ 4.23 µM) | 2 mg/L (≈ 4.23 µM) | > 128 mg/L | 2 mg/L (≈ 4.23 µM) | 2 mg/L (≈ 4.23 µM) | 2 mg/L (≈ 4.23 µM) |  | 3.9 µM
COc1ccc2nccc(CCN3CCC(NCc4ccc(C(N)=O)cc4)CC3)c2n1 [Compound C3, 4-((1-(2-(6-methoxy-1,5-naphthyridin-4-yl)ethyl)piperidin-4-ylamino)methyl) benzamide] | 1.82 µM | 94.0 ± 0.8% | 48.3 ± 1.0% | 128 mg/L (≈ 305 µM) | 105.8 ± 3.5% | 66.1 ± 3.5% | 4 mg/L (≈ 9.53 µM) | 8 mg/L (≈ 19.1 µM) | 0.25 mg/L (≈ 0.596 µM) | 128 mg/L (≈ 305 µM) | 4 mg/L (≈ 9.53 µM) | > 128 mg/L | 4 mg/L (≈ 9.53 µM) | 4 mg/L (≈ 9.53 µM) | 4 mg/L (≈ 9.53 µM) |  | > 100 µM
C=CCn1cc(CNC2CCN(CCc3ccnc4ccc(OC)nc34)CC2)cn1 [Compound C11, N-((1-allyl-^1H-pyrazol-4-yl)methyl)-1-(2-(6-methoxy-1,5-naphthyridin-4-yl)ethyl)piperidin-4-amine] | 1.1 µM | 108.5 ± 6.3% | 77.0 ± 2.4% | 8 mg/L (≈ 19.7 µM) | 88.6 ± 21.2% | 84.2 ± 19.5% | 2 mg/L (≈ 4.92 µM) | 4 mg/L (≈ 9.84 µM) | 0.125 mg/L (≈ 0.307 µM) | 8 mg/L (≈ 19.7 µM) | 1 mg/L (≈ 2.46 µM) | > 128 mg/L | 2 mg/L (≈ 4.92 µM) | < 1 mg/L | 2 mg/L (≈ 4.92 µM) | 2 mg/L (≈ 4.92 µM) | 16.7 µM
